Measured values as given in ChEMBL document CHEMBL4130440, “Isolation, Synthesis, and Biological Activity of Chlorinated Alkylresorcinols from Dictyostelium Cellular Slime Molds” (J Nat Prod, 2017).
pIC50: −log10 of the molar value.

Experiments:
[1] = system: Jurkat; assay: Immunosuppressive activity in human Jurkat cells assessed as inhibition of concanavalin A-induced IL-2 production at 20 uM pretreated for 30 mins followed by concanavalin A stimulation after 12 hrs by immunoassay relative to control; type: functional
[2] = system: Jurkat; assay: Cytotoxicity against concanavalin A-induced human Jurkat cells assessed as reduction in cell viability up to 20 uM pretreated for 30 mins followed by concanavalin A stimulation after 12 hrs by MTT assay; type: cell-based
[3] = system: Jurkat; assay: Immunosuppressive activity in human Jurkat cells assessed as inhibition of concanavalin A-induced IL-2 production pretreated for 30 mins followed by concanavalin A stimulation after 12 hrs by immunoassay; type: functional, cell-based

Compound | inhibition at 20 µM [1] [%] | also measured
CCCCCCCCCCCCCCc1cc(O)c(Cl)c(O)c1 | < 50 | 
CCCCCC[C@H]1C[C@H]1CCCCCCCc1cc(O)c(Cl)c(O)c1 | < 50 | 
CCCCCC/C=C\CCCCCc1cc(O)c(Cl)c(O)c1 | < 50 | 
CCCCCC/C=C\CC/C=C\CCCc1cc(O)c(Cl)c(O)c1 | < 50 | 
CCCCCCCCCCCCCCCc1cc(O)c(Cl)c(O)c1 | < 50 | 
CCCCCCCCCCCCCc1cc(O)c(Cl)c(O)c1 | < 50 | Activity [2]: Non-Toxic; pIC50 [3]: 4.80; inhibition [3]: Dose-dependent effect
CCCCCC[C@H]1C[C@H]1CCCCCc1cc(O)c(Cl)c(O)c1 | < 50 | 
CCCCCC/C=C\CCCCCCCc1cc(O)c(Cl)c(O)c1 | < 50 | 
